Measurements taken from patent US10440955B2, “Methods comprising a biocidal polyamine” (Curza Global, LLC, priority 2013, dated 2019).
Where “and” joins values, the source holds several entries; their conditions need not be identical. Equal values may be shown once. Where a name gives a salt, the structure may show the parent alone. Read-outs that look alike come from different tables or passages of the source. Values belong to the compound of their own block, whether it stands above or below them.

How the values were obtained:
A. baumannii biofilms [1] = assay: MBEC, MBEC Inoculation Tray (Innovotech), to 10^2 CFU/peg in 24 hours; type: cell-based, Acinetobacter baumannii; details: Table 3B c1, group head missing, probably MBEC
A. baumannii biofilms [2] = assay: EBEC, high number biofilms on PEEK membranes, 10^9 to 10^2 CFU/PEEK membrane in 24 hours; type: cell-based, Acinetobacter baumannii; details: Table 3B c4, group head missing
[3] = tested on: various bacterial cell cultures; assay: Antimicrobial activity of polyamines in hydrogel on agar lawns; type: cell-based; details: 0.5% CZ compound in 0.5% sodium hyaluronate gel, 500 uL on TSA lawn, 37 C for 24 hours
Experimental: A 0.5 McFarland standard of each bacteria was made, then individual lawns of bacteria spread onto the surface of tryptic soy agar (TSA). 500 uL of the suspended gel were placed on the center of each lawn. Plates were incubated at 37 C for 24 hours, then imaged. Images of the resulting gels are shown in FIGS. 30A to 30I show the effects of the polyamines CZ-86, CZ-100, and CZ-110 on various bacterial cell cultures.
The hydrogel that was used for those images is a LifeCore gel with 1% sodium hyaluronate (1% Sodium Hyaluronate Solution Part #82). The CZ compound was suspended in water at 1% (w/w) concentration and combined with the LifeCore gel 1:1 for a final product that contained 0.5% sodium hyaluronate and 0.5% CZ compound.

P. aeruginosa biofilms [4] = assay: EBEC, high number biofilms on PEEK membranes, 10^9 to 10^2 CFU/PEEK membrane in 24 hours; type: cell-based; details: Pseudomonas aeruginosa; Table 3B c3; group head missing; read-out: MICs (μg/mL) II: P. aeruginosa
Experimental: In addition to determining the MIC and the MBEC of polyamine compounds against planktonic bacteria and low number biofilms, our group wanted to determine the efficacy of polyamine compounds against high number biofilms. To do so, biofilms were grown on the surface of polyetheretherketone (PEEK) membranes using a membrane biofilm reactor. This reactor is similar to the CDC biofilm reactor, but rather than growing biofilms on coupon surfaces, the reactor was modified to hold PEEK membranes. In short, to grow biofilms within this system, 500 mL of brain heart infusion (BHI) broth were inoculated with 1 mL of a 0.5 McFarland. The reactor was placed on a hot plate set at 34° C. and the bacteria were grown under batch conditions for 24 hours. Following this protocol, biofilms typically grow to 10^9 CFU/PEEK membrane. […] A solution of 10% BHI was then flowed through the reactor at a rate of 6.94 mL/min for an additional 24 hours. PEEK membranes were then removed and placed into 2 mL of CAMHB that contained a desired concentration of polyamine compound or antibiotic. The EBEC was defined as the concentration of antimicrobial required to reduce a biofilm from approximately 10^9 CFU/PEEK membrane to approximately 10^2 CFU/PEEK membrane in a 24-hour period.

MRSA biofilms [5] = assay: as above; type: cell-based; details: Staphylococcus aureus, read-out: MICs (μg/mL) II: MRSA
P. aeruginosa biofilms [6] = assay: MBEC, MBEC Inoculation Tray (Innovotech), to 10^2 CFU/peg in 24 hours; type: cell-based; details: Pseudomonas aeruginosa; Table 3A c5; group head missing, probably MBEC; read-out: MICs (μg/mL): P. aeruginosa (second P. aeruginosa)
Source text: To determine the MBEC of each polyamine compound, the MBEC Inoculation Tray by Innovotech, formerly known as the Calgary biofilm device, was used. Within this device, biofilms grow on the surface of polystyrene pegs, 96 of which are attached to a lid. These pegs are inserted into a flat bottom 96-well plate. In this instance, the MBEC of a molecule was defined as the concentration of compound (in μg/mL) required to reduce 10^5 or 10^6 CFU/peg (biofilm levels varied by isolate) to 10^2 CFU/peg in a 24-hour period.
Following the manufacturer's guidelines, biofilms were grown on the surface of each peg by first making a 0.5 McFarland of each isolate. The 0.5 McFarland was diluted 1:100 in CAMHB. Into each well of a flat bottom 96-well plate, 150 μL of broth were pipetted. The plate was shaken at 100 rpm for 24 hours (P. aeruginosa and A. baumannii) or 48 hours (MRSA). The pegs were then placed into a separate flat bottom 96-well plate for 10 seconds with 200 μL of phosphate buffered saline (PBS) in each well to remove nonadherent cells. The lid was then placed into a 96-well plate that contained varying concentrations of antimicrobial with 200 μL per well. The plate was incubated for 24 hours at 37° C. after which time 100 μL of broth were plated on TSA. TSA plates were incubated 24 hours at 37° C. and the number of CFU counted to calculate the CFU/peg. […]

biofilm of MRSA = assay: Combination treatment: dispersal of a biofilm; type: cell-based, Staphylococcus aureus; details: […] mixed with chlorhexidine gluconate at […]; biofilm of 10^11 cells; within one hour
MRSA biofilms [7] = assay: EBEC, biofilms on PEEK membranes, eradication of all detectable bacteria (Example 2); type: cell-based, Staphylococcus aureus; details: ~2×10^11 cells per PEEK membrane, eradicate all detectable bacteria
Experimental: The fourth test that was performed was the effective biofilm eradication concentration (EBEC). To determine the EBEC, biofilms of MRSA and P. aeruginosa ATCC 27853 were grown on the surface of PEEK membranes using a previously established protocol. Briefly, 500 mL of brain heart infusion (BHI) broth were inoculated with 10^5 cells/mL of MRSA or P. aeruginosa. BHI broth was placed into a membrane biofilm reactor and placed on a hot plate set at 34° C. for 24 hours with a stir bar rotating at 130 rpm. Following the initial 24-hour growth period, a 10% BHI broth solution was flowed through the reactor at a rate of 6.944 mL/min for another 24 hours. After 48 hours of growth, each PEEK membrane had biofilm growth on it. In this experiment, there were ˜2×10^11 cells of MRSA per PEEK membrane and ˜2×10^10 cells of P. aeruginosa per PEEK membrane. The EBEC was defined as the concentration of the compound that was required to eradicate all detectable amounts (100%) of bacteria within the biofilms.

[8] = Acinetobacter baumannii, read-out: MICs (μg/mL) II: A. baumannii

Compound: Polymyxin B sulfate [reference compound]
- MICs (μg/mL) II: A. baumannii (A. baumannii biofilms [1]): 50 µg/mL
- MICs (μg/mL) II: A. baumannii (A. baumannii biofilms [2]): 1,000 μg/mL

Compound: CC(C)CNCCCNCCCNCc1cc(CNCCCNCCCNCC(C)C)cc(-c2ccccc2)c1 [CZ-86, N^1,N^1′-([1,1′-biphenyl]-3,5-diylbis(methylene))bis(N^3-(3-(isobutylamino)propyl)propane-1,3-diamine), hydrochloride salt]
- zones of inhibition in bacterial lawns [3]: created zones of inhibition

- MIC (A. baumannii biofilms [1]; [8]): > 500 µg/mL
- MIC (P. aeruginosa biofilms [4]): > 5000 µg/mL
- MIC (MRSA biofilms [5]; Table 3B c2, group head missing): > 5000 µg/mL
- MIC (A. baumannii biofilms [2]; [8]): > 5000 µg/mL
- MIC (P. aeruginosa biofilms [6]): > 5000 µg/mL
Compound: NCCCNCCCNCc1ccccc1 [CZ-7, benzylnorspermidine]
- dispersal of a biofilm of MRSA (biofilm of MRSA): significant dispersal

Compound: CN[C@H](CC(C)C)C(=O)N[C@H]1C(=O)N[C@@H](CC(N)=O)C(=O)N[C@H]2C(=O)N[C@H]3C(=O)N[C@H](C(=O)N[C@H](C(=O)O)c4cc(O)cc(O)c4-c4cc3ccc4O)[C@H](O)c3ccc(c(Cl)c3)Oc3cc2cc(c3O[C@@H]2O[C@H](CO)[C@@H](O)[C@H](O)[C@H]2O[C@H]2C[C@](C)(N)[C@H](O)[C@H](C)O2)Oc2ccc(cc2Cl)[C@H]1O [vancomycin, reference compound]
- EBEC (μg/mL/μM) (MRSA biofilms [7]): > 20,000 μg/mL and > 13,460 μM
- MIC (MRSA biofilms [5]): > 25000 µg/mL
